According to US7790762B2, “Compounds and methods for thiol-containing compound efflux and cancer treatment” (National Jewish Health, priority 2002, dated 2010):
Read-outs that look alike come from different tables or passages of the source.

Assays:
HL-60 cells [1] = assay: Intracellular GSH levels by HPLC-EC in HL-60 cells; type: cell-based, human; conditions: 24 hours treatment; for activity at 25 µM: Homo sapiens, HL-60, 25 μM, read-out: Int. GSH % con.
Description: (§1) Cell lines and culture conditions. Human lung epithelial cancer (A549), human leukemia HL-60 and human prostate (PC-3) tumor cells were purchased from ATCC (Manassas, Va.). A549 and PC-3 cells were grown in Ham's F12 medium (F12) and Kaighn's modification of Ham's F12 medium (F12K) with 2 mM L-glutamine (ATCC), respectively, supplemented with 10% fetal bovine serum (FBS) and 5% pen/strep (10,000 unit, Cellgro). HL-60 cells were grown in Iscove's modified Dulbecco's medium with 4 mM L-glutamine (ATCC) supplemented with 20% FBS and 5% pen/strep. Cell were grown in T-75 flask at 37° C. and 5% CO2 air atmosphere and in 24-well plates for GSH levels and LDH release measurements.
(§2) Intracellular levels of GSH. Intracellular GSH levels can be determined by HPLC-EC. Cultured cells from 24-well plates were washed once with 1 ml of PBS and then re-suspended in 0.5 ml of distilled water with 40 μM of digitonin (2 mM stock solution in DMSO) for 30 min at room temperature. Then, 50 μl of 10% meta-phosphoric acid were added (1% final concentration), the samples were sonicated for 2 min, centrifuged at 20,000 g for 10 min, and 0.2 ml of supernatant placed in vials for HPLC analysis. […] The flow rate was […]. The retention time for GSH in these conditions was 7.5 min. The HPLC instrument was from ESA, Inc. (Chelmsford, Mass.), equipped with an autosampler (model 540) and a Coul array detector (model 5600A). The potential applied was +0.75 V vs. H/Pd electrode, and the injection volume 5 μl.

PC-3 cells [2] = assay: Intracellular GSH levels by HPLC-EC in PC-3 cells; type: cell-based, human; conditions: PC-3, 25 μM, 24 hours treatment; for activity at 25 µM: Homo sapiens, read-out: Int. GSH % con.
Description: as §1, §2

PC-3 cells [3] = assay: Cytotoxicity as LDH release in PC-3 cells; type: cell-based, human; conditions: PC-3, 50 μM, 48 hours treatment; for LDH release, % of control at 50 µM: Homo sapiens, read-out: LDH rel. % con.
Description: as §1
(§3) Assessment of cytotoxicity. In one exemplary method, membrane integrity of A549, HL-60 and PC-3 cells was used as an index of drug-induced cytotoxicity, and was assessed by monitoring the release of cytosolic lactate dehydrogenase (LDH). LDH activity was measured in the culture medium and cell lysates (50 mM HEPES, Triton X-100 0.5%, pH 7) using a plate reader format as previously described (41). Briefly, 5 μl of cell culture supernatant and lysates were incubated with 0.24 mM NADH in a Tris/NaCl pH 7.2 buffer in 96-well plates for 5 min at 25° C. The reaction was started by the addition of 9.8 mM pyruvate and the consumption of NADH followed at 340 nm for 5 min at 30° C. Percent LDH release was calculated by the following: (supernatant LDH/supernatant LDH+lysate LDH)×100.

A549 cells [4] = assay: Cytotoxicity as LDH release in A549 cells; type: cell-based, human; conditions: 48 hours treatment; for LDH release, % of control at 50 µM: Homo sapiens, A549, 50 μM, read-out: LDH rel. % con.; for LDH rel. % con.: A549, 75 μM
Description: as §1, §3

HL-60 cells [5] = assay: Cytotoxicity as LDH release in HL-60 cells; type: cell-based, human; conditions: for LDH release, % of control at 25 µM: Homo sapiens, HL-60, 25 μM, read-out: LDH rel. % con.; for LDH release, % of control at 25 µM / LDH rel. % con.: 48 hours treatment; for LDH rel. % con.: HL-60, 50 μM
Description: as §1, §3

A549 cells [6] = assay: Intracellular GSH levels by HPLC-EC in A549 cells; type: cell-based, human; conditions: for Intracellular GSH levels, % compared to control / Int. GSH % con. / activity at 25 µM: A549, 25 μM
Description: as §1, §2

epithelial cells = assay: Effects of compounds on extracellular GSH transport (Table 3); type: cell-based; conditions: Epithelial cell, read-out: % Increase Over Control (extracellular GSH)
HL-60 cells [7] = assay: Cellular superoxide by flow cytometry with hydroethidine in HL-60 cells; type: cell-based, human; conditions: HL-60 cells, pre-treated 30 μM for 2 hours (FIG. 21B)
Description: Flow cytometry. In one exemplary method, cellular superoxide (O2^−) was measured by flow cytometry analysis using hydroethidine (HE) (30). Untreated and treated HL-60 cells (approximately 10^6) were exposed to HE (1 μM from 1 mM stock solutions in DMSO) for 30 min, then were centrifuged at 3,500 g for 15 min, and washed once with 1 ml ice-cold PBS. Cells were re-suspended in 0.5 ml ice-cold PBS, and HE oxidation product, i.e., ethidium bromide (EB), analyzed within 30 min using the red channel (PE) of a FACSCalibur flow cytometer from Becton Dickinson Biosciences (San Jose, Calif.). The total number of cell counts was 25,000.

`COc1ccc(CCN(C)CCCC(C#N)(c2ccc(OC)c(OC)c2)C(C)C)cc1OC` (racemic) [Verapamil, (±)-verapamil, reference compound] was tested. Which activity at 25 µM (HL-60 cells [1]) did it give?
Its activity at 25 µM is 63%.

And the activity at 25 µM (PC-3 cells [2])?
The activity at 25 µM was 72%.

And the LDH release, % of control at 50 µM (PC-3 cells [3])?
Its LDH release, % of control at 50 µM is 93%.

And the LDH release, % of control at 50 µM (A549 cells [4])?
The LDH release, % of control at 50 µM was 130%.

What about the LDH release, % of control at 25 µM (HL-60 cells [5]) of the same molecule?
Its LDH release, % of control at 25 µM is 125%.

And the activity at 50 µM (A549 cells [6]; Homo sapiens, A549, 50 μM, 24 hours treatment, read-out: Int. GSH % con.)?
Its activity at 50 µM is 14%.

What about the activation at 10 µM (epithelial cells; 10 μM) of the same molecule?
Its activation at 10 µM is 113%.

For `O=C(O)c1cc(S(=O)(=O)O)ccc1O` [5-Sulfosalicylic Acid], which activation at 50 µM (epithelial cells; 50 μM) is on record?
Its activation at 50 µM is 142%.

For `COc1ccc2cc3[n+](cc2c1OC)CCc1cc2c(cc1-3)OCO2` [Berberine], which activation at 100 µM (epithelial cells) is on record?
Its activation at 100 µM is 170%.

Which activation at 100 µM (epithelial cells) does the source give for `COc1ccc([C@@H]2Sc3ccccc3N(CCN(C)C)C(=O)[C@@H]2OC(C)=O)cc1` [Diltiazem, reference compound] here?
Its activation at 100 µM is 119%.

Which results are given for `O=c1c(-c2ccc(O)cc2)coc2cc(O)cc(O)c12` [Genistein]?
Int. GSH % con. (HL-60 cells [1]; HL-60, 75 μM): 57 % con.; Int. GSH % con. (PC-3 cells [2]): 81 % con.; LDH rel. % con. (PC-3 cells [3]): 131 % con.; LDH rel. % con. (A549 cells [4]): 350 % con.; LDH rel. % con. (HL-60 cells [5]): 160 % con.; Intracellular GSH levels, % compared to control (A549 cells [6]; 4 h): 34.8 ± 1.1%; Int. GSH % con. (A549 cells [6]; 24 hours treatment): 5 % con.

Which “Int. GSH % con.” value (HL-60 cells [1]; HL-60, 50 μM) does the source give for `O=c1c(O)c(-c2ccc(O)cc2)oc2cc(O)cc(O)c12` [Kaempferol, 3,5,7,4′quadrahydroxyflavone] here?
The value was 75 % con.

What about the “Int. GSH % con.” value (PC-3 cells [2]) of the same molecule?
The value was 77 % con.

And the “LDH rel. % con.” value (PC-3 cells [3])?
Its value is 115 % con.

What about the “LDH rel. % con.” value (A549 cells [4]) of the same molecule?
The value was 173 % con.

What about the “LDH rel. % con.” value (HL-60 cells [5]) of the same molecule?
The value was 128 % con.

And the “Intracellular GSH levels, % compared to control” value (A549 cells [6]; 4 h)?
Its value is 29.6 ± 0.9%.

What about the “Int. GSH % con.” value (A549 cells [6]; 24 hours treatment) of the same molecule?
Its value is 7 % con.

With `CN(C)C(=O)CCSC(SCCC(=O)O)c1cccc(/C=C/c2ccc3ccc(Cl)cc3n2)c1` (centres unmarked) [MK-571, reference compound] as the molecule, how does the activity at 25 µM (HL-60 cells [1]) read?
The activity at 25 µM was 40%.

What about the activity at 25 µM (PC-3 cells [2]) of the same molecule?
The activity at 25 µM was 41%.

What about the LDH release, % of control at 50 µM (PC-3 cells [3]) of the same molecule?
Its LDH release, % of control at 50 µM is 143%.

What about the LDH release, % of control at 50 µM (A549 cells [4]) of the same molecule?
Its LDH release, % of control at 50 µM is 249%.

And the LDH release, % of control at 25 µM (HL-60 cells [5])?
The LDH release, % of control at 25 µM was 169%.

And the activity at 25 µM (A549 cells [6]; Homo sapiens, 2 h, read-out: Intracellular GSH levels, % compared to control)?
Its activity at 25 µM is 62.6 ± 4.9%.

And the activity at 25 µM (A549 cells [6]; Homo sapiens, 4 h, read-out: Intracellular GSH levels, % compared to control)?
Its activity at 25 µM is < 5%.

What about the activity at 25 µM (A549 cells [6]; Homo sapiens, 24 hours treatment, read-out: Int. GSH % con.) of the same molecule?
The activity at 25 µM was < 5%.

For `COc1ccccc1C(=O)O` [Methylsalicylic Acid], which activation at 100 µM (epithelial cells) is on record?
Its activation at 100 µM is 169%.

Which “effect on the toxicity of curcumin (25 μM), LDH release” value (HL-60 cells [5]; HL-60 cells, 48 hours, compound 25 μM (FIG. 20A)) does the source give for `CC[n+]1ccccc1-c1c2nc(c(-c3cccc[n+]3CC)c3ccc([n-]3)c(-c3cccc[n+]3CC)c3nc(c(-c4cccc[n+]4CC)c4ccc1[n-]4)C=C3)C=C2.[Mn+3]` [MnTE-2-PyP, Manganese(III) meso-tetrakis(N-ethylpyridinium-2-yl)porphyrin, reference compound] here?
The value was “attenuated”.

What about the “O2^− levels induced by curcumin after pre-treatment” value (HL-60 cells [7]) of the same molecule?
The value was “lower levels of O2^− were detected”.
